Experimental data: paper PMC7582770, “Synthesis of “All-Cis” Trihydroxypiperidines from a Carbohydrate-Derived Ketone: Hints for the Design of New β-Gal and GCase Inhibitors” (Molecules, 2020)
Entries after “also recorded” stand apart in the source; their conditions may differ.

Test system: human fibroblasts derived from Gaucher patients
Assay: Toxicity / cell viability in Gaucher patient fibroblasts during chaperoning assay
Type: cell-based
Details: at 50 and 100 µM, 4 days
Procedure: Fibroblasts with the N370S/RecNcil mutation from patients with Gaucher disease were obtained from the “Cell line and DNA Biobank from patients affected by Genetic Diseases” (Gaslini Hospital, Genova, Italy). Fibroblasts cells (15.0 × 10^4) were seeded in T25 flasks with DMEM supplemented with fetal bovine serum (10%), penicillin/streptomycin (1%), and glutamine (1%) and incubated at 37 °C with 5% CO2 for 24 h. The medium was removed, and fresh medium containing compound 10 was added to the cells and left for 4 days. The medium was removed, and the cells were washed with PBS and detached with trypsin to obtain cell pellets, which were washed four times with PBS, frozen, and lysed by sonication in water. Enzyme activity was measured as reported above. Reported data are mean S.D. (n = 2).
Pharmacological chaperoning activity
Fibroblasts with the N370S/RecNcil mutation from Gaucher disease patients were obtained from the “Cell line and DNA Biobank from patients affected by Genetic Diseases” (Gaslini Hospital, Genova, Italy). Fibroblasts cells (20.0 x 104) were seeded in T25 flasks with DMEM supplemented with fetal bovine serum (10%), penicillin/streptomycin (1%), and glutamine (1%) and incubated at 37 °C with 5% CO2 for 24 h. […] Enzyme activity was measured as reported above. […]

## CCCCCCCCCCCCN[C@H]1CNC[C@@H](O)[C@H]1O [compound 10, (3R, 4S, 5S)-3,4-Dihydroxy-5-(Dodecylamino) Piperidine]
  toxicity / cell viability: low cell viability; also recorded: remarkable toxicity
